Assay [1] can be described thus: general mammalian cell viability loss – inhibitor set, cherry-pick, set 2, cytotoxicity control for miR-122 modulator project, dose response (AID 720697). The assay is classed as functional, cell-based.
The nature of assay [2]: cytotoxicity in HEK293 background cells – cell-based, dry powder, set 2, counter-screen for EBV LMP1 inhibitor project, dose response (AID 624374). The class given is functional. A general note: Counterscreens check selectivity or assay interference.
A further assay concerns the target Paired box protein Pax-8 (Homo sapiens, UniProt Q06710). Put plainly: PAX8 transcriptional activity inhibition in RMG-I – RMG-I cells, luciferase, cherry-pick, dose response (AID 687027).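 Also: luciferase reporter driven by Pax8 target thyroperoxidase promoter measured by SteadyGlo luminescence.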 The class given is functional, cell-based.
The nature of assay [3]: A2780 cell killing – plate reader, dry powder samples, cytotoxicity control, dose response (AID 743046). The class given is functional, cell-based.
Assay [4] is described as follows: OVCAR8 cell viability loss – plate reader, dry powder samples, PAX8 project, dose response (AID 743197). The class given is functional, cell-based. As to conditions: OVCAR-8.
Assay [5] can be described thus: CMV-driven luciferase expression suppression in HEK293 – cell-based, luminescence, dry powder, counter-screen for Pax8 inhibitor project, dose response (AID 743020). The class given is functional.
A short description of assay [6]: Late stage assay provider results from the probe development effort to identify inhibitors of the Plasmodium falciparum M18 Aspartyl Aminopeptidase (M18AAP): radiolabel-based cell-based dose response assay to identify compounds that inhibit P. falciparum growth in RBCs, Set 2.. The assay is classed as functional.
Assay [7] has as its target Kappa-type opioid receptor (Homo sapiens, UniProt P41145). The assay can be described thus: kappa opioid receptor antagonism potency – cell-based, fluorescence, dose response, late-stage follow-up (AID 652032). The assay is classed as functional.
For another assay, the target named is NS3 (Hepatitis C virus, UniProt A3EZJ3). Put plainly: NS3h DNA-binding inhibition IC50 – biochemical, fluorescence polarization, ChemBridge library, dose response (AID 743264). On the technique in general: Fluorescence polarisation rises when a labelled molecule tumbles more slowly, as on binding a larger partner.
The nature of assay [8]: viability loss in HepG2 hepatoma cells – cell-based, cherry-picks, set 5, cytotoxicity control, dose response (AID 1053118). The assay is classed as functional.
Assay [9] is described as follows: viability loss in HEK293 kidney cells – cell-based, cherry-picks, set 5, cytotoxicity control, dose response (AID 1053117). The assay is classed as functional.
Assay [10] deals with T1, Beta-lactamase (Pseudomonas aeruginosa, UniProt Q79MP6). The assay can be described thus: inhibition of IMP-1 beta-lactamase activity – biochemical, epi-absorbance, selectivity assay for VIM-2 inhibitor project, dose response (AID 1920).
The target in assay [11] is T2, Beta Lactamase (Pseudomonas aeruginosa, UniProt Q932Y6). The assay can be described thus: VIM-2 CCF2 hydrolysis inhibition, assay artifact filter – biochemical, FRET readout, CCF2 substrate, artefact control for selective VIM-2 inhibitor project, dose response (AID 1926).
In assay [12] the target is T2, Beta Lactamase. Put plainly: concentration-dependent VIM-2 enzyme inhibition – biochemical, epi-absorbance readout, selective inhibitors, dose response (AID 1919).
Assay [13] has as its target Beta-lactamase (Salmonella choleraesuis (strain SC-B67), UniProt Q5J463). The assay can be described thus: Epi-absorbance-based counterscreen for selective VIM-2 inhibitors: dose response biochemical high throughput screening assay to identify inhibitors of TEM-1 serine-beta-lactamase.
Assay [14] has as its target T1, Beta-lactamase. Put plainly: […] counterscreen for selective VIM-2 inhibitors: dose response biochemical high throughput screening assay to identify inhibitors of IMP-1 metallo-beta-lactamase.
The next assay concerns the target Genome polyprotein (dengue virus type 2, UniProt P29990). The assay can be described thus: flavivirus cap methylation enzyme inhibition – biochemical, confirmation dose response, primary screen (AID 588689). The class given is functional.
The target in assay [15] is T3, Carboxy-terminal domain RNA polymerase II polypeptide A small phosphatase 1 (Homo sapiens, UniProt Q9GZU7).
T3 sequence (Q9GZU7 whole entry): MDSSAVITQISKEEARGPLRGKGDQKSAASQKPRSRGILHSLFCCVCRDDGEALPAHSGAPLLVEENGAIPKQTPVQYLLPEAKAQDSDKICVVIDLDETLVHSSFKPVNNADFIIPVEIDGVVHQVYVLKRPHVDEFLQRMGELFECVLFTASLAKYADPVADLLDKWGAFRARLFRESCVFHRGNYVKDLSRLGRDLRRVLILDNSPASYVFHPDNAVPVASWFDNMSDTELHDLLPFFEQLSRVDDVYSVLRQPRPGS
The assay can be described thus: CTDSP1 inhibitors, concentration-response, biochemical, absorbance readout, ultra-high-throughput screen actives (AID 540297). The assay is classed as functional.

Results on 9 compounds are retold here after ChEMBL document CHEMBL1201862, “PubChem BioAssay data set” (2004).

Activity calls are given as the source filed them.

One may read the AC50 as the midpoint of the concentration-response curve, whichever way the signal moves. The term IC50 denotes the concentration at which inhibition is half-maximal.

T1 sequence (Q79MP6 whole entry): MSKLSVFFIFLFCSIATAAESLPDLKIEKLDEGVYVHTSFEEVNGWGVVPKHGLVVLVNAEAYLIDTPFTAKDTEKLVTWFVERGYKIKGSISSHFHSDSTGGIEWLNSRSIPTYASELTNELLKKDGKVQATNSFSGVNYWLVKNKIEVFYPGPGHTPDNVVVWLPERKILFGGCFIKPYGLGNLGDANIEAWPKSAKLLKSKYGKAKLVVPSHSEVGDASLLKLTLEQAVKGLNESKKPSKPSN
Sequence of Paired box protein Pax-8 (Q06710 whole entry): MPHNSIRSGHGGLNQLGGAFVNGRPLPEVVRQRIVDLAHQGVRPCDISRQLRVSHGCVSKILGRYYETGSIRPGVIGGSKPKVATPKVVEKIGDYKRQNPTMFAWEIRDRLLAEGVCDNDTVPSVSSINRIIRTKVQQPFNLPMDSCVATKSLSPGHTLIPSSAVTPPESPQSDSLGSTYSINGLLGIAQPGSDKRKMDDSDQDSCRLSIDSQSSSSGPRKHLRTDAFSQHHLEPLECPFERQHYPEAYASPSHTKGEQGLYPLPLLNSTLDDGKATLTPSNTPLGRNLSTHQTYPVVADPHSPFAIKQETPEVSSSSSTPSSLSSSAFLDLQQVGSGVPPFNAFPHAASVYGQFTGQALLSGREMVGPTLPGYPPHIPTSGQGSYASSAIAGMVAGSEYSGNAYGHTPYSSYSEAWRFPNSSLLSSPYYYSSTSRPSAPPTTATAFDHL
T2 sequence (Q932Y6 whole entry): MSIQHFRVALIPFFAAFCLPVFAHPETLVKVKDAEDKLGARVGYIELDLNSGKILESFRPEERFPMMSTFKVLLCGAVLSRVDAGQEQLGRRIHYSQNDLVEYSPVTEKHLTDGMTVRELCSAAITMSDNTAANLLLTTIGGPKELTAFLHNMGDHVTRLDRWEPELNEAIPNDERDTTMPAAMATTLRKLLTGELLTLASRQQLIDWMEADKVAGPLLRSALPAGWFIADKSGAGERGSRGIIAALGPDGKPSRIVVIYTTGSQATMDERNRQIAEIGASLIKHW
Sequence of Beta-lactamase (Salmonella choleraesuis (strain SC-B67), UniProt Q5J463) (Q5J463 whole entry): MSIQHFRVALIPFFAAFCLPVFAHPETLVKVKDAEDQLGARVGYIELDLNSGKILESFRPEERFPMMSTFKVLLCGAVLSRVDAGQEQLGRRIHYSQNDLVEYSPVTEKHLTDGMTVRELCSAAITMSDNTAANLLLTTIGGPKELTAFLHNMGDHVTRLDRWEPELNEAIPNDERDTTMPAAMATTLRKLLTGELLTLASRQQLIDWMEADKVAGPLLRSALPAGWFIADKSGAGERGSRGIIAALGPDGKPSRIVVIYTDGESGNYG
Sequence of Kappa-type opioid receptor (P41145 whole entry): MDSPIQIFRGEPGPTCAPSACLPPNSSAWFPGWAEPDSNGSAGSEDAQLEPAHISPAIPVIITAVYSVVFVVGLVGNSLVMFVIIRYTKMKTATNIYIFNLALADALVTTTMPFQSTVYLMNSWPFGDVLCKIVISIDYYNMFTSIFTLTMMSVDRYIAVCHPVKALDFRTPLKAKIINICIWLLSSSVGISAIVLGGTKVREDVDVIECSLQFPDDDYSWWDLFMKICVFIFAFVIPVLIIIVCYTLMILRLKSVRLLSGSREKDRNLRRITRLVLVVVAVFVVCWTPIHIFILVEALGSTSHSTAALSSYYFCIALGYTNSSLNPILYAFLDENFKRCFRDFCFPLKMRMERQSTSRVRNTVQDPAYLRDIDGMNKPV
Sequence of Genome polyprotein (P29990 2492-3391 limits assumed): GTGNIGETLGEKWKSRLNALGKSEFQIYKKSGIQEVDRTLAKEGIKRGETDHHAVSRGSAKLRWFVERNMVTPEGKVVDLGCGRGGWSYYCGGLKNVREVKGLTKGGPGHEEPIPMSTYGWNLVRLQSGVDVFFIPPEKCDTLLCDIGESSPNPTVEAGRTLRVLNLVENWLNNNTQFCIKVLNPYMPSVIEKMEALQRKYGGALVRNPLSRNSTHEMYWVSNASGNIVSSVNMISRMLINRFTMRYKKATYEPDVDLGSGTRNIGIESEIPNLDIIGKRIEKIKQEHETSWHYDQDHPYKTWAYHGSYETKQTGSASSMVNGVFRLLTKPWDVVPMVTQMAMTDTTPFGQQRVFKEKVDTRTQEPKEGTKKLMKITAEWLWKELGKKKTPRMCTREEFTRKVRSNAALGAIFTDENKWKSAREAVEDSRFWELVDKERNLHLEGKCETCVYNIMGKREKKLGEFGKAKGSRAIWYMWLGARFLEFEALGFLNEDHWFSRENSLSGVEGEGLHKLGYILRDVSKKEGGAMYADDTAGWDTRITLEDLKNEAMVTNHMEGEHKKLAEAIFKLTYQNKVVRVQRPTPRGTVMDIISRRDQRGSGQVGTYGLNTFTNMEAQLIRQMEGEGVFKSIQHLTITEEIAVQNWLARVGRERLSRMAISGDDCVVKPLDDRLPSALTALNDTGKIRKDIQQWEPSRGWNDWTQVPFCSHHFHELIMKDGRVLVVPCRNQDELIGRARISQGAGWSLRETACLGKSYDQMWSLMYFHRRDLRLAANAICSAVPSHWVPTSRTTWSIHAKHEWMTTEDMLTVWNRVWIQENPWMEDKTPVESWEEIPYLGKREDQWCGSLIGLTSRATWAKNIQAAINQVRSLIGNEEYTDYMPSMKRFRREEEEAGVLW
Sequence of NS3 (A3EZJ3 whole entry): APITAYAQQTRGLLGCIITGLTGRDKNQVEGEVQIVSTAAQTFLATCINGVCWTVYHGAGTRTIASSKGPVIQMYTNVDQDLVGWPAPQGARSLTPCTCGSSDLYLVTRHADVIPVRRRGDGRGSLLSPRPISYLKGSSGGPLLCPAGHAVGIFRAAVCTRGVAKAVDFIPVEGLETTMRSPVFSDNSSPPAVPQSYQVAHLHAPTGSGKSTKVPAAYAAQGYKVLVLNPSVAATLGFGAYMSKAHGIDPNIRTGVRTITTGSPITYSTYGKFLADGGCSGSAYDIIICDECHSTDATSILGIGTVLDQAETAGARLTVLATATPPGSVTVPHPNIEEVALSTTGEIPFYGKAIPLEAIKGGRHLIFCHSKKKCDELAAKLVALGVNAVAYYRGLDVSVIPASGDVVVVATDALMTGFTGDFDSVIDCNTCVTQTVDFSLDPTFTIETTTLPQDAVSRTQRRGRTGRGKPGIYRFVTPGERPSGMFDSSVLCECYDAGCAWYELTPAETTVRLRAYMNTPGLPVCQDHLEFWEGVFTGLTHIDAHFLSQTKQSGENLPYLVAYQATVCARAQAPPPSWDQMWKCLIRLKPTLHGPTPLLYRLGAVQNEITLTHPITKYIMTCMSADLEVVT

For `Cc1ccc(-c2ccc3c(c2)O[C@H](CN(C)C(=O)CC2CC2)[C@H](C)CN([C@@H](C)CO)S3(=O)=O)cc1`, the AC50 in assay [1] is 10.4 µM (active).
With `Cc1noc(C)c1S(=O)(=O)Nc1ccc2c(c1)C(=O)N([C@H](C)CO)C[C@H](C)[C@H](CN(C)Cc1ccc(C(F)(F)F)cc1)OCCCC[C@@H](C)O2`, the AbsAC35 in [2] stood at 79.09 µM.
On to `Cc1ccc(S(=O)(=O)Nc2ccc3c(c2)C(=O)N([C@H](C)CO)C[C@@H](C)[C@H](CN(C)S(=O)(=O)c2ccccc2)OCCCC[C@H](C)O3)cc1`, for which the AC50 was 8.05 µM (active) at Paired box protein Pax-8, 29.5 µM (active) in [3] and > 70 µM (inactive) in assay [4].
For the compound `COc1ccc(S(=O)(=O)Nc2ccc3c(c2)CC(=O)N([C@H](C)CO)C[C@H](C)[C@@H](CN(C)Cc2ccc(C(F)(F)F)cc2)O3)cc1`, the values for the AC50 (at Paired box protein Pax-8; in assay [4]; in assay [5]) were 19.3 µM (active), > 70 µM (inactive) and 49.3 µM (active), respectively.
As to `Oc1ccc(CCNC(c2ccccc2)c2ccccc2)cc1O`, the IC50 in assay [6] was 17 µM (inactive).
With `COC(=O)c1cc(Br)cnc1N1CCC(N)CC1`, in [7], the IC50 was 21.8 µM (inactive).
With `Cc1c(C(=O)O)cccc1-n1c(C)ccc1C`, on NS3, the IC50 was 34.5 µM (inactive).
On to `CO[C@@H]1CN(C)C(=O)c2cc(NC(=O)Nc3cc(Cl)cc(Cl)c3)ccc2OC[C@@H](C)NC[C@@H]1C`, for which the AC50 is 23.8 µM (active) in assay [8] and 36.7 µM (active) in assay [9].
For `Oc1c(Br)cc(/C=N/n2c(S)nnc2-c2ccccc2)cc1Br`, the IC50 at Beta-lactamase [10] was > 59.6 µM (inactive); on Beta Lactamase [11], 6.1 µM (active); on Beta Lactamase [12] it was 19.3 µM (inactive); on Beta-lactamase [13], > 59.6 µM (inactive); at Beta-lactamase [14], > 19.9 µM (inactive); at Genome polyprotein it was 27.5 µM (active). In [15], the IC50 was 1.54 µM (active).
